Measured values reported in patent US9180171B2, “Method of regulating fertilizing ability using cyclic ADP-ribose and CD38” (Industrial Cooperation Foundation Chonbuk National …, priority 2011, dated 2015).
Entries after “also recorded” stand apart in the source; their conditions may differ.

What was measured:
sperm [1] = experiment: Formation of cGDPR, cyclic ADP-ribose and NAADP in prostasome-bound or -unbound sperm; format: cell-based, human
Method: The isolated sperm were diluted with a weakly alkaline buffer or fusion buffer (150 mM NaCl, 1 mM CaCl2, 1 mM MgCl2, 5 mM glucose with either 2 mM Hepes (pH 8.0) or 20 mM MES (pH 5.0, fusion buffer)) containing 0.32 M sucrose. The dilution was mixed with prostasome such that the ratio of prostasome:sperm protein was 2:1. The mixture was allowed to react at 37° C. for 15 minutes. The reaction product was centrifuged at 600×g for 10 minutes, and the precipitate was collected, resuspended in BWW buffer and used in the experiment. […] Also, the binding of prostasome was the highest at a pH of 5.0 similar to the internal acidity of the female vagina and decreased toward alkaline pH values. […] In order to examine the formation of cyclic ADP-ribose and nicotinic acid adenine dinucletide phosphate which are typical metabolites of CD38, the sperm to which prostasome was unbound or bound was treated with progesterone, after which the level of each molecule in the sperm was measured at varying points of time.

sperm [2] = experiment: Measurement of calcium in sperm cells (fluo-3, confocal microscopy); format: cell-based, human
Method: In order to measure intracellular calcium release, the sperm suspension pretreated with fluo-3 (molecular probe, USA) was titrated in a confocal dish (SPL, Seoul, Korea) coated with poly-L-lysine (Sigma-Aldrich, USA) and was allowed to react in a CO2 incubator for 20 minutes to attach the cells. Calcium in the cells was measured by a confocal microscopy system (Nikon) using the method of Tsien et al. (Tsien et al., Nature 295, 68-71 (1982)).

sperm [3] = experiment: Test for sperm motility by prostasome (CASA); format: cell-based, human; conditions: prostasome-bound sperm treated with progesterone
Method: Sperm motility was measured using a CASA (computer assisted sperm analysis) system (IVOS, Hamilton Thorne Biosciences, USA). The sperm suspension was titrated onto a sperm analysis slide (2X-CEL, Hamilton Thorne Biosciences, USA) having a depth of 20 μm and was automatically photographed using a 4× magnification lens, followed by analysis.

CD31 = target: T1, CD31 (Homo sapiens, UniProt P16284); experiment: Test for activation of CD31 in sperm by CD38 (immunoprecipitation, Western blot); format: cell-based; conditions: sperm treated with 600 ng/ml CD38 for 0, 15, 30 min
T1 construct: endogenous in cells; host or cells: isolated sperm
Method: In order to test the activation of CD31 in sperm, the isolated sperm were treated with 600 ng/ml CD38 for each of 0 min, 15 min and 30 min, and then buffer was added thereto to lyse the cells. Also, CD31 antibody was used to perform immunoprecipitation, and Western blot was performed using each antibody in order to examine the phosphorylation of CD31 and to examine interacting proteins.

sperm [4] = experiment: Acrosome reaction of sperm by CD38 (ConA-FITC, A23187); format: cell-based; conditions: for acrosome reaction of CD38-treated sperm with inhibitor: inhibitor of downstream signaling of CD31
Method: To examine the acrosome reaction of sperm, ConA-FITC binding specifically to the acrosome of sperm was used. The isolated sperm were allowed to react with purified CD38 at 37° C. for 2 hours, and then were treated for 40 min with calcium ionophore A23187 that increases calcium in sperm to induce the acrosome reaction of sperm. Then, the sperm were placed on a glass slide, and the acrosome reaction of the sperm was examined with a fluorescence microscope.

sperm [5] = experiment: Test for motility of sperm by CD38; format: cell-based; conditions: for motility of sperm: sperm treated with CD38; for CD38-induced increase in motility of sperm with inhibitor: sperm treated with inhibitor, then CD38
Method: The relationship between CD31 activation by CD38 and sperm motility was analyzed. […] Also, it was seen that, when sperm were treated with the ERK1/2 inhibitor PD98059 and the ras-GTP inhibitor (FTI-277) and then treated with CD38, the increase in the motility of the sperm was inhibited.

mouse oocytes = experiment: In vitro fertilization test; format: cell-based, mice; conditions: prostasome-bound sperm pretreated with antagonist
Method: In vitro fertilization was performed using a modification of the method of Ren et al. (Ren et al., Nature 413, 603-609 (2001)). 10-12-week-old mice were injected with pregnant mare serum gonadotropin (PMSG) (5 IU; Sigma-Aldrich), and after 48 hours, injected with human chorionic gonadotropin (hCG) (5 IU; Sigma-Aldrich). 14 hours after the final injection, the uterine tube was removed and perfused with IVF medium (Medicult, USA), and the released oocytes were collected using a low-magnification microscope. In order to collect sperm, the epididymis of male mice was removed and cut into small pieces with scissors in the same medium, and swum-out sperm were collected. The number of cells in the sperm was measured, and the sperm were used in the test.

Which “formation of nicotinic acid adenine dinucletide phosphate in sperm” value (sperm [1]; prostasome-bound or -unbound sperm treated with progesterone) does the source give for CC(=O)[C@H]1CC[C@H]2[C@@H]3CCC4=CC(=O)CC[C@]4(C)[C@H]3CC[C@]12C [progesterone] here?
The value was “not formed”.

What about the “synthesis of cyclic ADP-ribose in sperm” value (sperm [1]; prostasome-bound sperm treated with progesterone, within several seconds) of the same compound?
The value was “rapidly increased”.

And the “intracellular calcium release by progesterone” value (sperm [2]; prostasome-bound sperm)?
The value was “intracellular calcium release immediately occurred”.

What about the “intracellular calcium reaction by progesterone” value (sperm [2]; prostasome-unbound sperm) of the same compound?
The value was “immediate calcium reaction”.

And the “increase of sperm motility” value (sperm [3])?
Its value is “about 2 times”.

“CD38: purified water-soluble CD38 (sCD38), ADP-ribosyl cyclase, a cell membrane protein” was tested. Which “phosphorylation of CD31” value (CD31) did it give?
Its value is “increased with time; also recorded: increased over time”.

And the “acrosome reaction of sperm” value (sperm [4]; sperm with purified CD38 at 37° C. for 2 hours, then A23187 40 min)?
The value was “significantly increased”.

What about the motility of sperm (sperm [5]) of the same compound?
The motility of sperm was “significantly increased”.

And the motility of sperm (sperm [5]; listed as sCD38)?
The motility of sperm was “increased”.

With COC(=O)[C@H](CCSC)NC(=O)c1ccc(NC[C@@H](N)CS)cc1-c1ccccc1 [FTI-277] as the compound, how does the “CD38-induced increase in motility of sperm with inhibitor” value (sperm [5]) read?
The value was “inhibited”.

For CN(C)S(=O)(=O)c1ccc2c(c1)/C(=C/c1cc3c([nH]1)CCCC3)C(=O)N2 [Su6656], which “acrosome reaction of CD38-treated sperm with inhibitor” value (sperm [4]) is on record?
Its value is “inhibited”.

How did the “acrosome reaction of CD38-treated sperm with inhibitor” value (sperm [4]) turn out when COc1cccc(-c2cc(=O)c3ccccc3o2)c1N [PD98059] was run?
Its value is “inhibited”.

And the “CD38-induced increase in motility of sperm with inhibitor” value (sperm [5])?
Its value is “inhibited”.

How did the “pattern of a continuous increase in calcium by progesterone” value (sperm [2]; prostasome-bound sperm pretreated with antagonist, then progesterone) turn out when N=c1c2nc(Br)n3c2ncn1C1OC(COP(=O)(O)OP(=O)(O)OCC2OC3C(O)C2O)C(O)C1O (stereo not drawn) [8-Br-cADPR] was run?
Its value is “inhibited”.

And the “reduction of fertilizing ability” value (mouse oocytes)?
Its value is “about 70%”.
